In assay [1] the test system is U937-C5aR cells. As to the kind of experiment: Chemotaxis assay, U937-C5aR cells. The assay is classed as cell-based, human. The note with it: Example 6. As to the method:
Neutrophils (4×10^6/ml) or U937-C5aR cells (6×10^6/ml) in chemotaxis buffer were treated for 15 min at 22° C. with 20 μg/ml of anti-CD36, anti-CD47 or anti-gC1qR. Cells were then allowed to respond to either 2.5% complement-activated serum (ZAS) or 1 nM purified C5a for 120 min (FIG. 14A. U937-C5aR cells) or 25 min (Panel B. neutrophils) at 37° C. Numbers represent mean±SEM, n=4.
U937 cells were originally obtained from the American Type Culture Collection and transfected with either the human C5a receptor or the empty plasmid vector as detailed previously (16). U937 cells were cultured at 37° C., 5% CO2 in RPMI 1640 containing 10% FBS (HyClone) and […] active G418 (Invitrogen Life Technologies) and maintained at a density between 2×10^5 and 1.5×10^6/ml.
Serum and citrated plasma (1 ml each) were incubated for 1 h at 37° C. with 10 mg of zymosan. Particulate matter was removed by centrifugation (15,000× g) for 5 min at 4° C. using a microfuge. Samples were then aliquoted and frozen at −20° C.
Cell movement was quantitated using a 48-well microchemotaxis chamber (NeuroProbe) and 5.0-μm pore size cellulose nitrate filters (purchased from NeuroProbe) as previously described (13). Cell movement was quantitated microscopically by measuring the distance in micrometers that the leading front of cells had migrated into the filter according to the method described by Zigmond and Hirsch (17). In each experiment, five fields per duplicate filter were measured at ×400 magnification. The value of the background controls for random cell movement (cells responding to buffer) has been subtracted in all cases so that the data are presented as net movement in micrometers.

The subject of assay [2] is differentiated HL-60 cells. The assay is described as follows: Chemotaxis assay, differentiated HL-60 cells responding to C5a, C5a plus DBP or ZAS. The assay is classed as cell-based, Human. As to conditions: differentiated HL-60 cells; 100 pM C5a (FIG. 1: 25-200 pM) plus 50 nM of indicated DBP, 60 min at 37° C. As to the method: Cells (6×10^6/ml) were resuspended in chemotaxis buffer and treated either with chemotaxis buffer (control), 1 μM of peptide 1 (130-152), or 1 μM of peptide 2 (150-172) for 30 min at room temperature. The chemotactic response of differentiated HL-60 cells to 100 pM C5a alone, C5a plus 50 nM full-length natural DBP or 1% zymosan-activated serum (ZAS) was measured for 60 minutes at 37° C. Numbers represent net cell movement in 60 min, mean±SEM of 3 experiments.
(§1) Cells and cell culture: Human promyelocytic cell line HL-60 was obtained from ATCC (Rockville, Md.) and cultured in RPMI 1640 medium supplemented with 10% FBS. Differentiation of HL-60 cells was initiated with 250 μM Bt2cAMP for 48 hours.
Chemotaxis assay. Chemotaxis was performed as described previously (see Kew, R. R. et al., J. Leukoc. Biol. 58, 55-58 (1995)). In brief, 35 μl of C5a (0.01 to 1 nM) in the chemotaxis buffer (HBSS with 1% BSA, 10 mM HEPES) were placed in duplicate in the lower chamber of a 48-well chamber (Neuroprobe, Md.). The lower compartments were covered with a 5 μm pore cellulose nitrate filter and then 50 μl of the cell suspension (2.5×10^5/well) was pipetted into the upper compartments. The chemotactic chamber was incubated for 1 hour at 37° C. in a humidified incubator with 5% CO2. Following incubation, the filter was fixed, stained and mounted on a microscope slide. Cell movement was measured as the distance in microns that the leading front of the cells had migrated into the filter (see Zigmond, S. et al., J. Exp. Med. 137, 387 (1973)).

For assay [3], the system named is differentiated HL-60 cells. The assay is described as follows: Ligand-induced calcium mobilization (Fluo-3 AM) in differentiated HL-60 cells. Format: cell-based, Human. The note with it: differentiated HL-60 cells incubated 30 min with 50 nM of indicated DBP, then C5a. On the procedure:
as §1
Ligand-induced calcium mobilization. Calcium mobilization studies were performed using the Fluo-3 AM probe as described previously (see Merritt, J. E. et al., Biochem. J. 269, 513-519 (1990)). Differentiated HL-60 cells (1×10^7 cells/ml) were resuspended in HBSS-1% BSA containing 2 μM Fluo-3 AM (Molecular Probes, Eugene, Oreg.) and incubated at 37° C. for 40 minutes. Cells incubated without the dye were used as a control to measure autofluorescence (Fmin). Following the dye uptake, cells were washed twice then suspended at 5×10^6 cells/ml in HBSS containing 1% BSA. Half of the cell suspension was treated with 50 nM DBP for 30 min at room temperature, the other half served as the untreated control. For each measurement, 400 μl of cell suspension (with or without DBP) was added to a cuvette and stimulated with various concentrations of purified C5a at room temperature (22-24° C.). Fluorescence was then measured immediately using a Perkin-Elmer LS-5 fluorometer at 505 nm excitation, 526 nm emission for Fluo-3 AM. Fmax was measured by treating labeled cells with 60 μM digitonin. Intracellular free calcium concentrations were calculated using the following formula: (Ca^2+)=Kd (F−Fmin)/(Fmax−F), where Kd=325 nM for Fluo-3 according to manufacturer (Molecular Probes).
For orientation: A change in cytosolic calcium serves as a functional read-out for many receptors and channels.

The test system of assay [4] is U937-C5aR cells. The assay is described as follows: C5a-induced intracellular calcium mobilization in U937-C5aR cells. Format: cell-based, human. As to conditions: FIG. 11B, 12; 0.5 μM DBP peptide, 50 nM DBP, 0.1 nM C5a. As to the method:
FIG. 11A and FIG. 11B show the effect of DBP on C5a-induced intracellular calcium mobilization in U937-C5aR cells. U937-C5aR cells (10^7 cells/ml) were resuspended in HBSS-1% BSA containing 2 μM Fluo-3 AM and incubated at 37° C. for 40 minutes. Cells incubated without the dye were used as a control to measure autofluorescence (Fmin). Following the dye uptake, cells were washed twice then suspended at 5×10^6 cells/ml in HBSS containing 1% BSA. For the pretreatment experiments, cells were incubated for 30 min at 22° C. with 50 nM DBP or 0.5 μM DBP peptide 1 (p1). For each measurement, 400 μl of cell suspension was added to a cuvette and stimulated with the indicated concentration of C5a (FIG. 11A) or 0.1 nM C5a (FIG. 11B). Fluorescence was then measured immediately using a Perkin-Elmer LS-5 fluorometer at 505 nm excitation, 526 nm emission for Fluo-3 AM. Fmax was measured by treating labeled cells with 60 μM digitonin. Intracellular free calcium concentrations were calculated using the following formula: (Ca^2+)=Kd (F−Fmin)/(Fmax−F), where Kd=325 nM for Fluo-3 according to manufacturer (Molecular Probes). Data are presented as mean±SEM (n=4-6) of the increase in intracellular calcium concentration.
U937-C5aR cells (10^7 cells/ml) were resuspended in HBSS-1% BSA containing 2 μM Fluo-3 AM and incubated at 37° C. for 40 minutes. Cells incubated without the dye were used as a control to measure autofluorescence (Fmin). Following the dye uptake, cells were washed twice then suspended at 5×10^6 cells/ml in HBSS containing 1% BSA. Cells were incubated for 30 min at 22° C. with either 50 nM DBP or 0.5 μM DBP peptide. For each measurement, 400 μl of cell suspension was added to a cuvette and stimulated with 0.1 nM purified C5a. Fluorescence was then measured immediately using a Perkin-Elmer LS-5 fluorometer at 505 nm excitation, 526 nm emission for Fluo-3 AM. Fmax was measured by treating labeled cells with 60 μM digitonin. Intracellular free calcium concentrations were calculated using the following formula: (Ca2+)=Kd (F−Fmin)/(Fmax−F), where Kd=325 nM for Fluo-3 according to manufacturer (Molecular Probes)

In another assay the test system is neutrophils. As to the kind of experiment: Quantitative binding of radioiodinated DBP to neutrophils. As to conditions: DBP saturated with the ligand; 100 nM 125I-DBP, 37° C. 60 min. Set-up: species or system human. On the procedure:
Quantitative binding of radioiodinated DBP to neutrophils Purified DBP (200-400 μg) was iodinated using Na-^125I (Dupont-NEN, Wilmington, Del.) as previously described (DiMartino and Kew, 1999). Neutrophils (10^7 cells/sample) were incubated with 100 nM ^125I-DBP in Hank's balanced salt solution (HBSS) containing 0.1% bovine serum albumin (BSA) (assay buffer) in a total volume of 100 μl. Samples were incubated at 37° C. for 60 min after which cells were placed on ice and then washed twice with ice-cold assay buffer (1.0 ml each) and centrifuged for 7 min at 200× g at 2° C. The cell pellets were then counted for total radioactivity in a gamma counter. All samples were assayed in triplicate or quadruplicate.

For `[O-][Cl+2]([O-])O` [chlorate, sodium chlorate], the “U937-C5aR chemotaxis to C-activated plasma” value in the assay with U937-C5aR cells [1] (2.5% C-activated plasma) is reported as “not”. In addition, in the assay on U937-C5aR cells [1] (2.5% C-activated serum), the “U937-C5aR chemotaxis to C-activated serum” value is listed as “significantly reduces”. Also, the “U937-C5aR chemotaxis to 1 nM purified C5a (net movement)” value in the assay with U937-C5aR cells [1] (treated cells, DBP-independent) is reported as 56+/−4.8 μm/120 min.

Consider “(1-112): truncated version of DBP domain I expressed in E. coli (LERGRDYEKNKVCKEFSHLGKEDFTSLSLVLYSRKFPSGT)”, for which the “enhancement of C5a-mediated chemotaxis (net cell movement)” value (“enhancement of C5a-mediated chemotaxis” below) in assay [2] was “lack enhancing activity”. Moreover, the “enhancement of intracellular Ca2+ flux in response to C5a” value (shortened to “enhancement of intracellular Ca2+ flux”) in assay [3] was “lack enhancing activity”. “(1-125): truncated version of DBP domain I expressed in E. coli (LERGRDYEKNKVCKEFSHLGKEDFTSLSLVLYSRKFPSGT)”: the “enhancement of C5a-mediated chemotaxis” value in assay [2] is “lack enhancing activity”. Further, in assay [3], the “enhancement of intracellular Ca2+ flux” value is “lack enhancing activity”. As to “(1-150): truncated version of DBP domain I expressed in E. coli (LERGRDYEKNKVCKEFSHLGKEDFTSLSLVLYSRKFPSGT)”, the “enhancement of C5a-mediated chemotaxis” value in assay [2] was “almost the same level of activity as full-length natural DBP”. Further, the “enhancement of intracellular Ca2+ flux” value in assay [3] is “almost the same level of activity as full-length natural DBP”.

With “(1-175): truncated version of DBP domain I expressed in E. coli (LERGRDYEKNKVCKEFSHLGKEDFTSLSLVLYSRKFPSGT)”, the “enhancement of C5a-mediated chemotaxis” value in assay [2] is on record as “almost the same level of activity as full-length natural DBP”. The “enhancement of intracellular Ca2+ flux” value in assay [3] was “almost the same level of activity as full-length natural DBP”. Consider “EAFRKDPKEYAN [peptide 3, DBP residues 130-141]”, for which the “block of the DBP-enhanced C5a calcium signal” value in the assay with U937-C5aR cells [4] is listed as “partially block”. Vitamin D: the “effect on binding of 125I-DBP to neutrophils” value with neutrophils is recorded as “does not alter its ability to bind to neutrophils”. As to “domain I & II: truncated reDBP, residues 1-378 (LERGRDYEKNKVCKEFSHLGKEDFTSLSLVLYSRKFPSGT)”, in assay [2], the “enhancement of C5a-mediated chemotaxis” value is “significantly enhanced”. In assay [3], the “enhancement of intracellular Ca2+ flux” value was “significantly enhanced”. Consider “domain I: truncated reDBP, residues 1-191 (EAFRKDPKEYANQFMWEYST)”, for which the “enhancement of C5a-mediated chemotaxis” value in assay [2] is “significantly enhanced”. Moreover, the “enhancement of intracellular Ca2+ flux” value in assay [3] is listed as “significantly enhanced”.

With “peptide 5: DBP residues #135-146, printed as SEQ ID NO: 10; residues match the sequence of SEQ ID NO: 9 (NQFMWEYSTNYG)”, in the assay with U937-C5aR cells [4], the “block of the DBP-enhanced C5a calcium signal” value was “partially block”.

The values are drawn from patent US7547676B2, “Antagonist peptides to the C5A chemotactic function of vitamin D binding protein” (The Research Foundation of State University of New York, priority 2004, dated 2009).
